Data taken from patent US20120329865A1, “MOLECULES RELATED hERG ION [sequence] AND THE USE THEREOF” (priority 2009, published 2012).
Entries after “also recorded” stand apart in the source; their conditions may differ.

test system: not given; experiment: not given; settings: not given

SMILES | melting point
CC1=C(C#N)C(=C(C#N)C#N)OC1(C)c1ccc(Cl)cc1Cl (stereo not drawn) [Compound G, 2-dicyanomethylene-3-cyano-4,5-dimethyl-5-[2′,4′-dichlorophenyl]-2,5-dihydrofuran] | 239 to 240 °C

biological target: T1, hERG ion channels (Homo sapiens, UniProt Q12809); experiment: Label-free RWG biosensor (Epic) DMR assay, agonism mode, HEK-hERG cells stably expressing hERG; settings: 10 micromolar
T1 sequence (Q12809 whole entry): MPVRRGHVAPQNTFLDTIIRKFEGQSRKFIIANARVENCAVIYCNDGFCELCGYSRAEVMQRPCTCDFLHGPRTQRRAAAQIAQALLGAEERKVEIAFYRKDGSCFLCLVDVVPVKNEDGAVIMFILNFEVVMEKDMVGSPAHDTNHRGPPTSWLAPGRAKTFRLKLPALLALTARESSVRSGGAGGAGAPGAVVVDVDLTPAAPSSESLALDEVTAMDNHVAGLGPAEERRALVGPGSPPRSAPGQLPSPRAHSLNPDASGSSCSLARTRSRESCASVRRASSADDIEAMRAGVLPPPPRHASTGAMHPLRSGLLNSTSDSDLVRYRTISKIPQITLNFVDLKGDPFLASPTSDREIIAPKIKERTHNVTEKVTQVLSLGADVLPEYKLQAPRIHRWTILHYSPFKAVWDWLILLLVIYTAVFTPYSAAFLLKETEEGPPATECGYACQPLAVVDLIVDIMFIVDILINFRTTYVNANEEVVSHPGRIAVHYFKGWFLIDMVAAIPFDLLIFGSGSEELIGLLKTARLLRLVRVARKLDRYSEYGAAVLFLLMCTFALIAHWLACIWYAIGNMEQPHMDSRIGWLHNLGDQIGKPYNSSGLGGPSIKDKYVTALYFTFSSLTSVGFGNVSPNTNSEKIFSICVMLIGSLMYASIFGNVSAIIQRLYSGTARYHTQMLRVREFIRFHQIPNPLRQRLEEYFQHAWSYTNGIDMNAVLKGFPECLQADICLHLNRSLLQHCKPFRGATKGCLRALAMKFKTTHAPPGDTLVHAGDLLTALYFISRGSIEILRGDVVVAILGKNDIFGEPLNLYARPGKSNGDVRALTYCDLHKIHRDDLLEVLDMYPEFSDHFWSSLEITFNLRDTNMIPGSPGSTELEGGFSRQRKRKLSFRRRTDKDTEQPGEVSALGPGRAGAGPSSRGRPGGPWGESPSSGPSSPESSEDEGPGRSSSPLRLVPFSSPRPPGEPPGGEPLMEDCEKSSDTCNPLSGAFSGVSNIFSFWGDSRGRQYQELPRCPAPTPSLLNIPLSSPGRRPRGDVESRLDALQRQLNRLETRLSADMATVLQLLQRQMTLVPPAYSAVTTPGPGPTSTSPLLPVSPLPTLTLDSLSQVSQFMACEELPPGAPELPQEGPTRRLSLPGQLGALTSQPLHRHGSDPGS
Source text: (§2) Using the RWG biosensor Corning® Epic® system, all compounds were systematically characterized for their ability to modulate hERG ion channels in live cells. The Epic® system consists of a temperature-control unit, an optical detection unit, with an on-board liquid handling unit with robotics, or an external liquid accessory system with robotics. The detection unit is centered on integrated fiber optics, and enables kinetic measures of cellular responses with a time interval of ˜7 or 15 sec. The compound solutions were introduced by using either the on-board liquid handling unit, or the external liquid accessory system; both of which use conventional pippetting system.
(§3) Epic® wavelength interrogation system (Corning Inc., Corning, N.Y.) was used for whole cell sensing. This system consists of a temperature-control unit, an optical detection unit, and an on-board liquid handling unit with robotics. The detection unit is centered on integrated fiber optics, and enables kinetic measures of cellular responses with a time interval of ˜15 sec.
(§4) Cells were plated in 384-well Epic® cell culture treated plate (Corning Cat#5040) 16-20 hours before assay (15000 cells/well for HEK293 and HEK-hERG cells, 30000 cells/well for HT29 cells). For both HEK-hERG and its parental HEK293 cells, each well was coated with 10 μl 5 μg/ml fibronectin. One hour before assay, cells were washed twice on a BioTek ELx405 Select washer with Hank's Balanced Salt Solution (HBSS) containing 20 mM Hepes. Cells were incubated in 40 μl/well HBSS at 28° C. inside the Epic system for one hour. For each assay, a 2-min baseline was initiated, followed by addition of 10 μl compound solutions (5×) and the cell responses were recorded continuously for one hour.
(§5) All studies were carried out at a controlled temperature (28° C.). At least two independent sets of experiments, each with at least three replicates, were performed. […] All dose-dependent responses were analyzed using non-linear regression method with the GraphPad Prism 5.
(§6) In a specific approach, any compound can be profiled in three different types of cells, HT29, HEK-hERG, and HEK-293 cells, in both agonism and antagonism modes. The human colon cancerous cell line HT-29 is known to endogenously express hERG channels. HEK293 is a native cell line without endogenously expressed hERG channels, while HEK-hERG is an engineered HEK293 cell having stably expressed hERG channels.

SMILES | DMR signal in HEK-hERG cells
CCCCc1ccc(C2(C)OC(=C(C#N)C#N)C(C#N)=C2C)cc1 (stereo not drawn) [Compound E, 2-dicyanomethylene-3-cyano-4,5-dimethyl-5-[4′-n-butylphenyl]-2,5-dihydrofuran] | robust DMR signals
CC1=C(C#N)C(=C(C#N)C#N)OC1(C)c1ccc(F)cc1F (stereo not drawn) [Compound D, 2-dicyanomethylene-3-cyano-4,5-dimethyl-5-[2′,4′-difluorophenyl]-2,5-dihydrofuran] | robust DMR signals
O=C(O)c1ccccc1Nc1cccc(C(F)(F)F)c1 [flufenamic acid] | robust DMR signals
CC1=C(C#N)C(=C(C#N)C#N)OC1(c1ccccc1)C(F)(F)F (stereo not drawn) [Compound B, 2-dicyanomethylene-3-cyano-4-methyl-5-phenyl-5-perfluoromethyl-2,5-dihydrofuran] | robust DMR signals

biological target: hERG channel (Homo sapiens, UniProt Q12809); experiment: Automated patch clamp recording using IonWorks, CHO-hERG cells; settings: 50 micromolar; tail current at -35 mV after +40 mV depolarization
Procedure: CHO-K1 cells stably expressing hERG channel (CHO-hERG) were cultured in T175 flask till about 70% confluent. Cells were washed twice with PBS, then 2.5 ml 0.25% Trypsin/EDTA was mixed with 2.5 ml PBS and added to the T175 flask. Cells were incubated about 2 minutes with the diluted Trypsin/EDTA solution at 37° C., then were continuously incubated about 3 minutes at room temperature. 20 ml fresh medium were added to suspend the cells and transfer to a 50 ml tube. Cells were centrifuged down at 750 rpm for 5 minutes. The extra medium was removed and cells were resuspended in 6 ml External Buffer (137 mM NaCl, 4 mM KCl, 1.8 mM CaCl2, 1 mM MgCl2, 10 mM HEPES, 10 mM glucose, pH 7.4). Then cells were centrifuged again at 450 rpm for another 5 minutes. Finally cells were resuspended in 4 ml the External Buffer, cell number was counted using a hemacytometer. Cell suspension was diluted to 2.5×10^6 cells/ml with the External Buffer. 4 ml of the resuspended cells were added to the cell reservoir in IonWorks. The Internal solution used contains: 40 mM KCl, 100 mM K-Gluconate, 3.2 mM MgCl2, 2 mM CaCl2, 5 mM HEPES, pH 7.25 (adjusted with KOH). […]
hERG currents were recorded on IonWorks Quattro (Molecular Devices). […] Tail currents were measured during an ensuing return to −35 mV. […]

Chain of hERG channel (Q12809 whole entry): as above

SMILES | effect on hERG current (tail current)
O=C(O)c1ccccc1Nc1cccc(C(F)(F)F)c1 [flufenamic acid] | weak hERG current activator; also recorded: potentiated

biological target: T1, hERG ion channels; experiment: DMR antagonism mode: modulation of the mallotoxin DMR signal in HEK-hERG cells; settings: molecule 10 micromolar, mallotoxin 16 micromolar

SMILES | modulation index against the mallotoxin DMR signal in HEK-hERG
O=C(O)c1ccccc1Nc1cccc(C(F)(F)F)c1 [flufenamic acid] | ~+12%

same assay, conditions: molecule 10 micromolar, mallotoxin 16 micromolar; antagonism assay

SMILES | effect on the mallotoxin DMR signal in HEK-hERG cells (in words)
CCCCc1ccc(C2(C)OC(=C(C#N)C#N)C(C#N)=C2C)cc1 (stereo not drawn) [Compound E, 2-dicyanomethylene-3-cyano-4,5-dimethyl-5-[4′-n-butylphenyl]-2,5-dihydrofuran] | attenuated signal
CC1=C(C#N)C(=C(C#N)C#N)OC1(C)c1ccc(F)cc1F (stereo not drawn) [Compound D, 2-dicyanomethylene-3-cyano-4,5-dimethyl-5-[2′,4′-difluorophenyl]-2,5-dihydrofuran] | attenuated signal
CC1=C(C#N)C(=C(C#N)C#N)OC1(c1ccccc1)C(F)(F)F (stereo not drawn) [Compound B, 2-dicyanomethylene-3-cyano-4-methyl-5-phenyl-5-perfluoromethyl-2,5-dihydrofuran] | desensitization

same assay, conditions: score assigned from % modulation of mallotoxin DMR (10% = 1)

SMILES | score of modulation index, HEK-hERG coordinate
O=C(O)c1ccccc1Nc1cccc(C(F)(F)F)c1 [flufenamic acid] | 1
O=C(O)c1cc(-c2ccc(F)cc2F)ccc1O [diflunisal, reference compound] | 1

biological target: T1, hERG ion channels; experiment: DMR antagonism mode: modulation of the mallotoxin DMR signal in HT29 cells; settings: molecule 10 micromolar, mallotoxin 16 micromolar

SMILES | modulation index against the mallotoxin DMR signal in HT29
O=C(O)c1ccccc1Nc1cccc(C(F)(F)F)c1 [flufenamic acid] | −90%

same assay, conditions: molecule 10 micromolar, mallotoxin 16 micromolar; antagonism assay

SMILES | effect on the mallotoxin DMR signal in HT29 cells (in words)
CCCCc1ccc(C2(C)OC(=C(C#N)C#N)C(C#N)=C2C)cc1 (stereo not drawn) [Compound E, 2-dicyanomethylene-3-cyano-4,5-dimethyl-5-[4′-n-butylphenyl]-2,5-dihydrofuran] | attenuated signal
CC1=C(C#N)C(=C(C#N)C#N)OC1(C)c1ccc(F)cc1F (stereo not drawn) [Compound D, 2-dicyanomethylene-3-cyano-4,5-dimethyl-5-[2′,4′-difluorophenyl]-2,5-dihydrofuran] | attenuated signal
O=C(O)c1ccccc1Nc1cccc(C(F)(F)F)c1 [flufenamic acid] | selectively attenuated
CC1=C(C#N)C(=C(C#N)C#N)OC1(c1ccccc1)C(F)(F)F (stereo not drawn) [Compound B, 2-dicyanomethylene-3-cyano-4-methyl-5-phenyl-5-perfluoromethyl-2,5-dihydrofuran] | desensitization

same assay, conditions: score assigned from % modulation of mallotoxin DMR (10% = 1)

SMILES | score of modulation index, HT29 coordinate
O=C(O)c1ccccc1Nc1cccc(C(F)(F)F)c1 [flufenamic acid] | −9
O=C(O)c1cc(-c2ccc(F)cc2F)ccc1O [diflunisal, reference compound] | −9

test system: MCF7; experiment: Cell proliferation assay (CellTiter-Glo) in MCF7; format: cell-based; settings: 48 h exposure; data not shown
Procedure: (§1) Proliferation was measured using the CellTiter-Glo Luminescent Cell Viability Assay (Technical Bulletin #288, Promega, Madison, Wis.). When added to cells, the assay reagent produces luminescence in the presence of ATP from viable cells. Cells were plated in 96-well Corning Costar TCT (tissue culture treated) plates at a density of 10,000 cells/well and incubated for 24 h. Test samples were solubilized in dimethyl sulfoxide (DMSO) by sonication, filter sterilized and diluted with media to the desired treatment concentration. Cells were treated with 100 μl control media, or test samples, and incubated for 48 h drug exposure duration. At the end of 48 h, plates were equilibrated at room temperature for 30 min, 100 μl of the assay reagent was added to each well and cell lysis was induced on an orbital shaker for 2 min. Plates were incubated at room temperature for 10 min to stabilize the luminescence signal and results were read on an Perkin Elmer Vector 3 Microplate Reader. All plates had control wells containing medium without cells to obtain a value for background luminescence. Data are expressed as for three replications.

SMILES | cell apoptosis or alteration in cell proliferation rate, MCF7
CCCCc1ccc(C2(C)OC(=C(C#N)C#N)C(C#N)=C2C)cc1 (stereo not drawn) [Compound E, 2-dicyanomethylene-3-cyano-4,5-dimethyl-5-[4′-n-butylphenyl]-2,5-dihydrofuran] | did not lead to cell apoptosis or any alteration in cell proliferation rate
CC1=C(C#N)C(=C(C#N)C#N)OC1(C)c1ccc(F)cc1F (stereo not drawn) [Compound D, 2-dicyanomethylene-3-cyano-4,5-dimethyl-5-[2′,4′-difluorophenyl]-2,5-dihydrofuran] | did not lead to cell apoptosis or any alteration in cell proliferation rate
CC1=C(C#N)C(=C(C#N)C#N)OC12CCCCC2 [Compound U, 2-dicyanomethylene-3-cyano-4-methyl-5-spiro-cyclohexyl-2,5-dihydrofuran] | did not lead to cell apoptosis or any alteration in cell proliferation rate

biological target: T1, hERG ion channels; experiment: Label-free RWG biosensor (Epic) DMR assay, agonism mode, HT29 cells endogenously expressing hERG; settings: 10 micromolar
Source text: as §2, §3, §4, §5, §6

SMILES | DMR signal in HT29 cells
CCCCc1ccc(C2(C)OC(=C(C#N)C#N)C(C#N)=C2C)cc1 (stereo not drawn) [Compound E, 2-dicyanomethylene-3-cyano-4,5-dimethyl-5-[4′-n-butylphenyl]-2,5-dihydrofuran] | robust DMR signals
CC1=C(C#N)C(=C(C#N)C#N)OC1(C)c1ccc(F)cc1F (stereo not drawn) [Compound D, 2-dicyanomethylene-3-cyano-4,5-dimethyl-5-[2′,4′-difluorophenyl]-2,5-dihydrofuran] | robust DMR signals
O=C(O)c1ccccc1Nc1cccc(C(F)(F)F)c1 [flufenamic acid] | robust DMR signals
CC1=C(C#N)C(=C(C#N)C#N)OC1(c1ccccc1)C(F)(F)F (stereo not drawn) [Compound B, 2-dicyanomethylene-3-cyano-4-methyl-5-phenyl-5-perfluoromethyl-2,5-dihydrofuran] | robust DMR signals

biological target: T1, hERG ion channels; experiment: Label-free biosensor hERG modulator classification from profiles in HT29, HEK-hERG and HEK293 cells plus mallotoxin modulation; settings: label-free biosensor cellular assays
Source text: Label-free RWG biosensor cellular assays were developed to directly assaying the activation and its subsequent signaling of hERG channels without applying voltages to the cells. […] Generally, the disclosed methods to characterize modulators acting directly through hERG ion channel, or indirectly via hERG-associated signaling complexes are related to label-free biosensor cellular assays. Disclosed is the use of three types of cells: a cancerous cell line endogenously expressing hERG ion channels, a native cell line without endogenous hERG channels and its engineered cell line overexpressing hERG channels, for characterizing hERG modulators. Also disclosed is the use of mallotoxin or other hERG activator as a readout to further confirm the modes of action of hERG modulators.
as §6

SMILES | class of hERG modulator assigned
O=C(O)c1ccccc1Nc1cccc(C(F)(F)F)c1 [flufenamic acid] | hERG pathway activator, a label free biosensor hERG activator; also recorded: weak hERG activator
CC(=O)c1c(O)c(C)c(O)c(Cc2c(O)c3c(c(C(=O)/C=C/c4ccccc4)c2O)OC(C)(C)C=C3)c1O [mallotoxin] | label free biosensor hERG activator
O=C(Nc1cc(C(F)(F)F)ccc1O)Nc1cc(C(F)(F)F)ccc1O [NS1643] | label-free biosensor hERG activators

test system: HT29; experiment: Cell proliferation assay (CellTiter-Glo) in HT29; format: cell-based, human; settings: 25 micromolar, in vitro culture
Procedure: as §1

SMILES | cytotoxicity on cancer cell line HT29
CCCCc1ccc(C2(C)OC(=C(C#N)C#N)C(C#N)=C2C)cc1 (stereo not drawn) [Compound E, 2-dicyanomethylene-3-cyano-4,5-dimethyl-5-[4′-n-butylphenyl]-2,5-dihydrofuran] | did not exhibit cytotoxicity
CC1=C(C#N)C(=C(C#N)C#N)OC1(C)c1ccc(F)cc1F (stereo not drawn) [Compound D, 2-dicyanomethylene-3-cyano-4,5-dimethyl-5-[2′,4′-difluorophenyl]-2,5-dihydrofuran] | did not exhibit cytotoxicity
CC1=C(C#N)C(=C(C#N)C#N)OC12CCCCC2 [Compound U, 2-dicyanomethylene-3-cyano-4-methyl-5-spiro-cyclohexyl-2,5-dihydrofuran] | did not exhibit cytotoxicity

same assay, conditions: 48 h exposure

SMILES | cell apoptosis or alteration in cell proliferation rate, HT29
CCCCc1ccc(C2(C)OC(=C(C#N)C#N)C(C#N)=C2C)cc1 (stereo not drawn) [Compound E, 2-dicyanomethylene-3-cyano-4,5-dimethyl-5-[4′-n-butylphenyl]-2,5-dihydrofuran] | did not lead to cell apoptosis or any alteration in cell proliferation rate
CC1=C(C#N)C(=C(C#N)C#N)OC1(C)c1ccc(F)cc1F (stereo not drawn) [Compound D, 2-dicyanomethylene-3-cyano-4,5-dimethyl-5-[2′,4′-difluorophenyl]-2,5-dihydrofuran] | did not lead to cell apoptosis or any alteration in cell proliferation rate
CC1=C(C#N)C(=C(C#N)C#N)OC12CCCCC2 [Compound U, 2-dicyanomethylene-3-cyano-4-methyl-5-spiro-cyclohexyl-2,5-dihydrofuran] | did not lead to cell apoptosis or any alteration in cell proliferation rate

biological target: T1, hERG ion channels; experiment: Rb+ flux assay using HEK-hERG cells; settings: 5 mM KCl, modulators at 10 or 50 micromolar (FIG. 3)
Procedure: Briefly, 50,000 cells per well were plated in 96-well tissue culture treated plates 20 hours before assay. In the next day, cells were incubated with complete cell culture medium containing 5 mM RbCl for 3 hours at 37° C. with 5% CO2. Then compounds (10×) diluted in HBSS were added into the cell culture medium and cells were incubated at 37° C. with 5% CO2 for another hour. Cells were washed twice with Rb^+ free cell culture medium and incubated with 180 μl/well of cell culture medium containing different concentration of KCl for exactly 10 minutes. The supernatant from each well was transferred to a new 96 well plate immediately. Cells were lysed with 180 μl/well 0.5% Triton100 in HBSS. The Rb^+ concentration of each sample was determined by ICR8000 (Aurora Biomed Inc.).

SMILES | Rb+ flux signal
CCCCc1ccc(C2(C)OC(=C(C#N)C#N)C(C#N)=C2C)cc1 (stereo not drawn) [Compound E, 2-dicyanomethylene-3-cyano-4,5-dimethyl-5-[4′-n-butylphenyl]-2,5-dihydrofuran] | small but detectable increase
CN(CCOc1ccc(NS(C)(=O)=O)cc1)CCc1ccc(NS(C)(=O)=O)cc1 [dofetilide] | suppression
CC1=C(C#N)C(=C(C#N)C#N)OC1(C)c1ccc(F)cc1F (stereo not drawn) [Compound D, 2-dicyanomethylene-3-cyano-4,5-dimethyl-5-[2′,4′-difluorophenyl]-2,5-dihydrofuran] | small but detectable increase
O=C(O)c1ccccc1Nc1cccc(C(F)(F)F)c1 [flufenamic acid] | weak hERG ion flux activator; also recorded: small and dose-dependent increase
CC(=O)c1c(O)c(C)c(O)c(Cc2c(O)c3c(c(C(=O)/C=C/c4ccccc4)c2O)OC(C)(C)C=C3)c1O [mallotoxin] | significant increase

biological target: T1, hERG ion channels; experiment: not given; settings: not given

SMILES | class of hERG modulator assigned
CCCCc1ccc(C2(C)OC(=C(C#N)C#N)C(C#N)=C2C)cc1 (stereo not drawn) [Compound E, 2-dicyanomethylene-3-cyano-4,5-dimethyl-5-[4′-n-butylphenyl]-2,5-dihydrofuran] | hERG activators
O=C(O)c1ccccc1Nc1ccc(CCc2ccc(Cl)c(Cl)c2)cc1 [PD-118057, reference compound] | label-free biosensor hERG activators
CN(CCO)c1ccc(/C=C/C2=C(C#N)C(=C(C#N)C#N)OC2(C)c2c(F)c(F)c(F)c(F)c2F)cc1 (stereo not drawn) [J] | label-free biosensor hERG activator
CC1=C(C#N)C(=C(C#N)C#N)OC12CCCCC2 [Compound U, 2-dicyanomethylene-3-cyano-4-methyl-5-spiro-cyclohexyl-2,5-dihydrofuran] | label-free biosensor hERG activator
COc1ccc2nccc(C(=O)CC[C@@H]3CCN(CC#Cc4cc(F)cc(F)c4F)C[C@@H]3C(=O)O)c2c1 [RPR260243, reference compound] | label-free biosensor hERG activators
N#CC(C#N)=Cc1ccc([N+](=O)[O-])c(O)c1 [AG126, reference compound] | hERG pathway activator
CC1=C(C#N)C(=C(C#N)C#N)OC1(C)c1ccc(Cl)c(Cl)c1 (stereo not drawn) [Compound F, 2-dicyanomethylene-3-cyano-4,5-dimethyl-5-[3′,4′-dichlorophenyl]-2,5-dihydrofuran] | label-free biosensor hERG activator
CC1=C(C#N)C(=C(C#N)C#N)OC1(C)C [A] | label-free biosensor hERG activator
CC1=C(C#N)C(=C(C#N)C#N)OC1(C)c1ccc(Cl)c(Cl)c1Cl (stereo not drawn) [H] | label-free biosensor hERG activator
CC1=C(C#N)C(=C(C#N)C#N)OC1(c1ccccc1)C(F)(F)F (stereo not drawn) [Compound B, 2-dicyanomethylene-3-cyano-4-methyl-5-phenyl-5-perfluoromethyl-2,5-dihydrofuran] | potent label-free biosensor hERG activator
CC1=C/C(=C/C=C/C2=C(C#N)C(=C(C#N)C#N)OC2(C)c2ccc(C3CCCCC3)cc2)CC(C)(C)C1 (stereo not drawn) [Compound I] | label-free biosensor hERG activator
CC1=C(C#N)C(=C(C#N)C#N)OC1(C)c1ccc(F)cc1 (stereo not drawn) [C] | label-free biosensor hERG activator
O=C(O)c1cccnc1Nc1ccc2c(c1)CN(c1ccc(Cl)c(Cl)c1)C2 [PD-307243, reference compound] | label-free biosensor hERG activators
O=C(O)CC1CCC(c2ccc(-c3cc(C(F)(F)F)[nH]n3)cc2)CC1 (stereo not drawn) [Compound A-935142, reference compound] | label-free biosensor hERG activators
